Test [1] has as its system GBM patients. As to the kind of experiment: Survival of temozolomide-treated GBM patients stratified by ZEB1 copy number and MGMT expression. Format: in vivo, human. As to conditions: temozolomide treatment. From the text: Given our observations that ZEB1 and CD133 expression imparts GSC resistance to differentiation and impacts patient survival, we considered if ZEB1 loss would impact response to therapy. To do this, we explored the role of 06-methylguanine-DNA methyltransferase (MGMT) which removes DNA alkylating agents and therefore hinders the effectiveness of chemotherapeutic alkylating agents including temozolomide.^28 The MGMT promoter region has been shown when hypermethylated to suppress MGMT activity conferring chemosensitivity resulting in favorable prognosis compared to the hypomethylated state of MGMT which results in poor patient outcomes. MGMT expression is inversely correlated to its methylated state. We sought to determine the effect of ZEB1 loss on the clinical impact of hypermethylation of MGMT in the presence of temozolomide.
MGMT expression is inversely correlated to its methylated state. We sought to determine the effect of ZEB1 deletion on the clinical impact of hypermethylation of MGMT in the presence of temozolomide.

Test [2] has as its system GBM patients. As to the kind of experiment: Kaplan-Meier overall survival of GBM patients treated with or without bevacizumab, stratified by ZEB1 copy number (study set J / data set of 78 GBM patients). In kind it is in vivo, human. The text has this:
Data are expressed as mean±s.e.m. Kaplan-Meier curves and p values were generated using Prism 6.0v. Two-tailed student's t-test, were used. A P value of *<0.05 was considered significant.

The test system of test [3] is GBM patients. As to conditions: two recent phase III trials; cited from earlier work.
The test system of the next test is glioblastoma patients. Briefly: Overall survival of 403 glioblastoma patients treated with or without bevacizumab, stratified by ZEB1 expression. Format: in vivo, human. To be noted: general patient population. The text has this: Studies reported OS results by ZEB1 status and permutations of ZEB1/IDH1 status via (1) Kaplan-Meier curves, (2) hazard ratios (HRs) and corresponding 95% confidence intervals, (3) c-statistic. We translated all reports of survival outcomes to the number of events and the survival time. Patients not experiencing event were censored at the last follow-up date.
Data are presented as frequency (percentage, %) for categorical variables and median (IQR, interquartile range) for continuous variables. ZEB1 and IDH1 mRNA values were log base 2 transformed. Univariate associations between variables were examined with Wilcoxon rank-sum test, chi-square test, or Spearman rank correlation, where appropriate. A Cox proportional hazards regression model was employed in univariate and multivariable analyses to identify variables that predict OS. The proportional hazards assumption was evaluated with Schoenfeld residuals and a Kolmogorov-type supremum test. Hazard ratios (HRs) were expressed as an increase from the 25th to 75th percentile in continuous variables. Multivariable analysis was further carried out with the Cox proportional hazards model to examine whether an improvement in predictive discriminatory power was obtained when ZEB1 was added to the model containing the known marker, IDH1 and age. […]

Test [4] has as its system GSCs. Briefly: Neurosphere formation and limiting dilution sphere-forming assay. Format: cell-based, human. To be noted: IFN-γ treated GSCs. The method, then:
Neural Basal A media (Invitrogen) supplemented with EGF and bFGF (R&D Systems) were used to culture primary patient derived glioma stem cells (GSCs) which were dissociated into single cells sorted for CD133 expression and plated onto 24 well plates with various seeding densities (4-100 cells/well). GSCs were incubated at 37° C. at 5% CO2 for 2 to 3 weeks. GSCs were then quantified for neurosphere formation.
Neural Basal A media (Invitrogen) supplemented with EGF and bFGF (R&D Systems) were used to culture primary patient derived GCSCs which were dissociated into single cells sorted for CD133 expression and plated onto 24 well plates with various seeding densities (4-100 cells/well). GCSCs were incubated at 37° C. at 5% CO2 for 2 to 3 weeks. GCSCs were then quantified for neurosphere formation.

In test [5] the test system is GSCs. As to the kind of experiment: CD133 staining of GSCs by flow cytometry (FACs). Format: cell-based, human. To be noted: IFN-γ 7 days (100 ng/ml). The method, then:
GSCs were washed with 1× PBS buffer 3 times and resuspended in 1× PBS. GSCs were fixed in 4% formaldehyde for 15 min at room temperature. Cells were washed with 1× PBS buffer and were incubated in 0.1% Triton X-100 for 5 min, washed and then incubated with FcR Blocker (Mitenyi Biotech) followed by incubation with CD133 antibody conjugated to Phycoerythrin (PE) or although not shown an isotype control was also performed (Mitenyi Biotech), protected from light for 1 hr at room temperature. Cells were washed and analyzed on a FACscan flow cytometer (BD Biosciences, San Jose, Calif.).
GSCs were washed with 1× PBS buffer 3 times and resuspended in 1× PBS. GSCs were fixed in 4% formaldehyde for 15 min at room temperature. Cells were washed with 1× PBS buffer and were incubated in 0.1% Triton X-100 for 5 min, washed and then incubated with FcR Blocker (Mitenyi Biotech) followed by incubation with CD133 antibody conjugated to Phycoerythrin (PE) or although not shown an isotype control was also performed (Miltenyi Biotech), protected from light for 1 […] at room temperature. Cells were washed and analyzed on a FACscan flow cytometer (BD Biosciences).
GCSCs were washed with 1× PBS buffer 3 times and resuspended in 1× PBS. GCSCs were fixed in 4% formaldehyde for 15 min at room temperature. […] Cells were washed and analyzed on a FACscan flow cytometer (BD Biosciences). […]
On the technique in general: Flow cytometry measures light scatter and fluorescence of single cells or particles in a stream.

In the next test the test system is LIF promoter. Briefly: LIF luciferase reporter assay in GCSCs. In kind it is cell-based, human. As to conditions: IFN-γ 200 ng/mL 72 hrs; all constructs except −109/+10 region. The method, then:
(§1) To measure transcriptional activity of LIF, 0827 GSCs (1×10^4 cells per transfection, three replicates per condition) were transiently transfected with one of several deletion LIF luciferase reporter plasmids (1 ug; Switchgear) with the use of X-treme gene HP DNA (Roche), seeded in six-well plates (1×10^4 cell per well), and incubated for 48 hrs. IFN-γ cytokine (200 ng/mL) was added to the cultures and the cells were incubated for 72 hrs. The cells were harvested and the luciferase activity was measured with the use of a GloMax 20/20 Luminometer (Promega, Madison, Wis.). These experiments were carried out in triplicate on three different occasions.
as §1, with “GCSCs” for “GSCs”, “IFN-6” for “IFN-γ”, “occasions. […]” for “occasions.”
On the technique in general: A reporter such as luciferase makes a cellular process visible.

The subject of another test is GCSCs. As to the kind of experiment: ZEB1 expression by qRT-PCR in GCSCs treated with IFN-γ. Format: cell-based, human. To be noted: IFN-γ 3 days (200 ng/ml). The method, then: FIGS. 15A-15J depict, in accordance with various embodiments of the present invention, effect of IFN-γ on LIF and ZEB1 activation in patient derived glioma cancer stem cells (GCSCs). (FIG. 15A) GCSCs were treated with IFN-γ for 3-days and ZEB1 expression levels were determined by qRT-PCR. (FIG. 15B) The percentage of CD133^+ GCSCs in the presence and absence of IFN-γ were determined by flow cytometry. GCSCs were incubated with IFN-γ for 7-days. (FIG. 15C) The effects of IFN-γ on secondary neurosphere formation. […] (FIG. 15E) Spearman correlation between LIF and ZEB1 GBM patients (n=28), rank correlation (R) and two-tailed significance is shown. (FIG. 15F) ZEB1 binding motifs within the LIF promoter (CAGGTG, ***P<0.0001 and CAGGTA,***P<0.0001). […]
To generate GSCs that stably express short hairpin RNAs (shRNAs) that target ZEB1, we co-transfected shRNA (Origene, Rockville Md.),—that target ZEB1 into our 0827 or 0323 GSCs, with a VSV-G expression plasmid (Clontech) into the GP2-293 packaging cell line (Clontech) according to the manufacturer's instructions. […] Cells that were resistant to puromycin were characterized for ZEB1 expression by immunoblotting and subsequent cell proliferation using 5-ethynyl-2′-deoxyuridine (EdU) Click-IT assay (Life Technologies) using fluorescence activated cell sorting (FACs) analysis according to the manufacturer's instructions. […]
(In qPCR the cycle at which signal appears reflects the starting amount.)

Entries after “also recorded” stand apart in the source; their conditions may differ.

`Cn1nnc2c(C(N)=O)ncn2c1=O` [temozolomide]: the “hazard ratio, patient survival, ZEB1 deletion vs wildtype ZEB1” value with GBM patients [1] (high MGMT expression (n=121)) was found to be 1.59; in the test on GBM patients [1] (low MGMT expression (n=115)) it was 1.56.
Regarding bevacizumab, the “effect on patient survival” value in the test on GBM patients [2] (ZEB1 deleted patients) is on record as “significant survival benefit; also recorded: increase in survival”; in the test with GBM patients [2] (ZEB1 intact / ZEB1 wt patients) it was “no change in survival; also recorded: no effect”; in the test on GBM patients [2] (general patient population, independent data set of 78 GBM patients), “did little to alter patient survival”; in the test on glioblastoma patients, “did little to alter patient survival”. For the same molecule, in the test on GBM patients [3], the “survival advantage in GBM patients” value is listed as “no survival advantage”.

B1: IFN-γ: proinflammatory cytokine interferon gamma (eBioscience) (protein, UniProt P01579 24-161, looked up)
Interferon gamma: QDPYVKEAENLKKYFNAGHSDVADNGTLFLGILKNWKEESDRKIMQSQIVSFYFKLFKNFKDDQSIQKSVETIKEDMNVKFFNSNKKKRDDFEKLTNYSVTDLNVQRKAIHELIQVMAELSPAAKTGKRKRSQMLFRG
Take B1: the secondary neurosphere formation entry in the test with GSCs [4] is reported as “decreased”. Besides, in the test on GSCs [4] (limiting dilution), the “self-renewal capabilities vs untreated” value is “decreased”. Further, the CD133 expression entry in the test with GSCs [5] is listed as “decreased”. In the test with LIF promoter, the “LIF transcriptional activity (luciferase deletion constructs)” value is reported as “suppressive effect”. Further, in the test on GCSCs, the “ZEB1 induction (expression) vs untreated” value is “significant increase; also recorded: induced”.
